According to US12304916B2, “Thienopyridinyl and thiazolopyridinyl compounds useful as IRAK4 inhibitors” (BRISTOL-MYERS SQUIBB COMPANY, priority 2019, dated 2025):
pIC50: −log10 of the molar value.

What follows are compounds tested against IRAK4 (Homo sapiens (Human), UniProt Q9NWZ3) (assay: IRAK4 Inhibition Assay). Conditions: ATP 500 μM; IRAK4 0.6 nM; 60 min at room temperature.
Format: biochemical
Protocol: The assays were performed in U-bottom 384-well plates. The final assay volume was 30 μL prepared from 15 μL additions of enzyme and substrates (fluoresceinated peptide and ATP) and test compounds in assay buffer (20 mM HEPES pH 7.2, 10 mM MgCl2, 0.015% Brij 35 and 4 mM DTT). The reaction was initiated by the combination of IRAK4 with substrates and test compounds. The reaction mixture was incubated at room temperature for 60 min. and terminated by adding 45 μL of 35 mM EDTA to each sample. The reaction mixture was analyzed on the Caliper LABCHIP® 3000 (Caliper, Hopkinton, MA) by electrophoretic separation of the fluorescent substrate and phosphorylated product. Inhibition data were calculated by comparison to no enzyme control reactions for 100% inhibition and vehicle-only reactions for 0% inhibition. The final concentrations of reagents in the assays are ATP, 500 μM; FL-IPTSPITTTYFFFKKK peptide 1.5 μM; IRAK4, 0.6 nM; and DMSO, 1.6%.

IRAK4, sequence (Q9NWZ3 whole entry, species assumed): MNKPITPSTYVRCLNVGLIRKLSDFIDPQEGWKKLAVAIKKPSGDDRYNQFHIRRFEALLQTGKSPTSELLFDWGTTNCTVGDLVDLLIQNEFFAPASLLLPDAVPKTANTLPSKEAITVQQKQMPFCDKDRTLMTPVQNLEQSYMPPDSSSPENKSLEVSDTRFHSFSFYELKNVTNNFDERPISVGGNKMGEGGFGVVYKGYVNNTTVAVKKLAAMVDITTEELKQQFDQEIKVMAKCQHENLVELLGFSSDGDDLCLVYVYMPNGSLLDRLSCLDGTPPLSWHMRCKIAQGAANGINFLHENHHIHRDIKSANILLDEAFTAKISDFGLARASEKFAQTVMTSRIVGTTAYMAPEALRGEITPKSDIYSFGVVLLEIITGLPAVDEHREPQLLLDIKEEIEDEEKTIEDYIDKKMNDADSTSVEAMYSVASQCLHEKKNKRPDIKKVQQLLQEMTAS

Structure (SMILES)	pIC50
CC(C)(O)[C@H](F)CNC(=O)c1cnc2sc(-c3ccccc3)nc2c1NC1CC1 [Example 1, (R)-7-(cyclopropylamino)-N-(2-fluoro-3-hydroxy-3-methylbutyl)-2-phenylthiazolo[5,4-b]pyridine-6-carboxamide]	7.40
CC(C)Nc1c(C(=O)NC[C@@H](F)C(C)(C)O)cnc2sc(-c3ccccc3)nc12 [Example 2, (R)-N-(2-fluoro-3-hydroxy-3-methylbutyl)-7-(isopropylamino)-2-phenylthiazolo[5,4-b]pyridine-6-carboxamide]	7.81
CC(C)(O)[C@H](F)CNC(=O)c1cnc2sc(-c3ccccc3)nc2c1NC1CCCC1 [Example 3, (R)-7-(cyclopentylamino)-N-(2-fluoro-3-hydroxy-3-methylbutyl)-2-phenylthiazolo[5,4-b]pyridine-6-carboxamide]	7.47
CC(C)(O)[C@H](F)CNC(=O)c1cnc2sc(-c3ccccc3)nc2c1NC1CCOCC1 [Example 4, (R)-N-(2-fluoro-3-hydroxy-3-methylbutyl)-2-phenyl-7-((tetrahydro-2H-pyran-4-yl)amino)thiazolo[5,4-b]pyridine-6-carboxamide]	8.10
CCNc1c(C(=O)NC[C@@H](F)C(C)(C)O)cnc2sc(-c3ccccc3)nc12 [Example 5, (R)-7-(ethylamino)-N-(2-fluoro-3-hydroxy-3-methylbutyl)-2-phenylthiazolo[5,4-b]pyridine-6-carboxamide]	7.34
C[C@H](CO)Nc1c(C(=O)NC[C@@H](F)C(C)(C)O)cnc2sc(-c3ccccc3)nc12 [Example 6, N-((R)-2-fluoro-3-hydroxy-3-methylbutyl)-7-(((R)-1-hydroxypropan-2-yl)amino)-2-phenylthiazolo[5,4-b]pyridine-6-carboxamide]	7.40
C[C@H](CO)Nc1c(C(=O)NCCC(C)(C)O)cnc2sc(-c3ccccc3)nc12 [Example 7, (R)-N-(3-hydroxy-3-methylbutyl)-7-((1-hydroxypropan-2-yl)amino)-2-phenylthiazolo[5,4-b]pyridine-6-carboxamide]	6.77
C[C@H](CO)Nc1c(C(=O)NCCCN2CCOCC2)cnc2sc(-c3ccccc3)nc12 [Example 8, (R)-7-((1-hydroxypropan-2-yl)amino)-N-(3-morpholinopropyl)-2-phenylthiazolo[5,4-b]pyridine-6-carboxamide]	6.32
C[C@H](CO)Nc1c(C(=O)NCCC#N)cnc2sc(-c3ccccc3)nc12 [Example 9, (R)-N-(2-cyanoethyl)-7-((1-hydroxypropan-2-yl)amino)-2-phenylthiazolo[5,4-b]pyridine-6-carboxamide]	6.36
C[C@H](CO)Nc1c(C(=O)NCCS(C)(=O)=O)cnc2sc(-c3ccccc3)nc12 [Example 10, (R)-7-((1-hydroxypropan-2-yl)amino)-N-(2-(methylsulfonyl)ethyl)-2-phenylthiazolo[5,4-b] pyridine-6-carboxamide]	6.13
CC(C)Nc1c(C(=O)NC[C@@H](F)C(C)(C)O)cnc2sc(-c3cccnc3)nc12 [Example 11, (R)-N-(2-fluoro-3-hydroxy-3-methylbutyl)-7-(isopropylamino)-2-(pyridin-3-yl)thiazolo[5,4-b]pyridine-6-carboxamide]	7.92
CC(C)(O)CCNC(=O)c1cnc2sc(-c3cccnc3)nc2c1NC1CCOCC1 [Example 12, N-(3-hydroxy-3-methylbutyl)-2-(pyridin-3-yl)-7-((tetrahydro-2H-pyran-4-yl)amino) thiazolo[5,4-b]pyridine-6-carboxamide]	6.78
O=C(NCCN1CCC(O)CC1)c1cnc2sc(-c3cccnc3)nc2c1NC1CCOCC1 [Example 13, N-(2-(4-hydroxypiperidin-1-yl)ethyl)-2-(pyridin-3-yl)-7-((tetrahydro-2H-pyran-4-yl)amino)thiazolo[5,4-b]pyridine-6-carboxamide]	6.29
CC(C)(O)[C@H](F)CNC(=O)c1cnc2sc(-c3cccnc3)nc2c1NC1CCOCC1 [Example 14, (R)-N-(2-fluoro-3-hydroxy-3-methylbutyl)-2-(pyridin-3-yl)-7-((tetrahydro-2H-pyran-4-yl)amino)thiazolo[5,4-b]pyridine-6-carboxamide]	7.40
CC(C)Nc1c(C(=O)NC[C@@H](F)C(C)(C)O)cnc2sc(Nc3ccc(-n4cccn4)cc3)nc12 [Example 15, (R)-2-((4-(1H-pyrazol-1-yl)phenyl)amino)-N-(2-fluoro-3-hydroxy-3-methylbutyl)-7-(isopropylamino)thiazolo[5,4-b]pyridine-6-carboxamide]	5.62
CC(C)Nc1c(C(=O)NC[C@@H](F)C(C)(C)O)cnc2sc(Nc3cccnc3)nc12 [Example 16, (R)-N-(2-fluoro-3-hydroxy-3-methylbutyl)-7-(isopropylamino)-2-(pyridin-3-ylamino)thiazolo[5,4-b]pyridine-6-carboxamide]	6.91
CC(C)Nc1c(C(=O)NC[C@@H](F)C(C)(C)O)cnc2sc(Nc3ccc(S(C)(=O)=O)cc3)nc12 [Example 17, (R)-N-(2-fluoro-3-hydroxy-3-methylbutyl)-7-(isopropylamino)-2-((4-(methylsulfonyl)phenyl)amino)thiazolo[5,4-b]pyridine-6-carboxamide]	6.10

Structure (SMILES)	pIC50
CC(C)Nc1c(C(=O)NCCC(F)(F)F)cnc2sc(-c3cccnc3)nc12 [Example 18, 7-(isopropylamino)-2-(pyridin-3-yl)-N-(3,3,3-trifluoropropyl) thiazolo[5,4-b]pyridine-6-carboxamide]	6.49
CC(C)Nc1c(C(=O)NCCC2CC2)cnc2sc(-c3cccnc3)nc12 [Example 19, N-(2-cyclopropylethyl)-7-(isopropylamino)-2-(pyridin-3-yl)thiazolo[5,4-b]pyridine-6-carboxamide]	7.14
CC(=O)O[C@H]1CC[C@H](NC(=O)c2cnc3sc(-c4cccnc4)nc3c2NC(C)C)CC1 [Example 20, (1r,4r)-4-(7-(isopropylamino)-2-(pyridin-3-yl)thiazolo[5,4-b]pyridine-6-carboxamido)cyclohexyl acetate]	7.91
CC(C)Nc1c(C(=O)NC[C@@H](F)C(C)(C)O)cnc2sc(-c3ccc4nccn4c3)cc12 [Example 26, (R)-N-(2-fluoro-3-hydroxy-3-methylbutyl)-2-(imidazo[1,2-a]pyridin-6-yl)-4-(isopropylamino)thieno[2,3-b]pyridine-5-carboxamide]	7.56
CC(C)Nc1c(C(=O)NC[C@@H](F)C(C)(C)O)cnc2sc(-c3c[nH]c4ncc(F)cc34)cc12 [Example 28, (R)-2-(5-fluoro-1H-pyrrolo[2,3-b]pyridin-3-yl)-N-(2-fluoro-3-hydroxy-3-methylbutyl)-4-(isopropylamino)thieno[2,3-b]pyridine-5-carboxamide]	7.12
CC(C)CCNC(=O)c1cnc2sc(-c3cccnc3)cc2c1NC(C)C [Example 31, N-isopentyl-4-(isopropylamino)-2-(pyridin-3-yl) thieno[2,3-b]pyridine-5-carboxamide]	7.45
CC(C)CCNC(=O)c1cnc2sc(-c3ccnnc3)cc2c1NC(C)C [Example 33, N-isopentyl-4-(isopropylamino)-2-(pyridazin-4-yl)thieno[2,3-b]pyridine-5-carboxamide]	7.54
COCCNC(=O)c1cnc2sc(-c3cncs3)cc2c1NC(C)C [Example 34, 4-(isopropylamino)-N-(2-methoxyethyl)-2-(thiazol-5-yl)thieno[2,3-b]pyridine-5-carboxamide]	7.52
Cc1cc(CNC(=O)c2cnc3sc(-c4cncs4)cc3c2NC(C)C)on1 [Example 35, 4-(isopropylamino)-N-((3-methylisoxazol-5-yl)methyl)-2-(thiazol-5-yl)thieno[2,3-b]pyridine-5-carboxamide]	7.22
CC(C)Nc1c(C(=O)N[C@H]2CC[C@H](O)CC2)cnc2sc(-c3cncs3)cc12 [Example 36, N-((1r,4r)-4-hydroxycyclohexyl)-4-(isopropylamino)-2-(thiazol-5-yl)thieno[2,3-b]pyridine-5-carboxamide]	7.69
CC(C)Nc1c(C(=O)NCCC2(CO)CC2)cnc2sc(-c3cncs3)cc12 [Example 37, N-(2-(1-(hydroxymethyl)cyclopropyl)ethyl)-4-(isopropylamino)-2-(thiazol-5-yl)thieno[2,3-b]pyridine-5-carboxamide]	6.42
CC(C)Nc1c(C(=O)NC(CCO)C2CC2)cnc2sc(-c3cncs3)cc12 (stereo not drawn) [Example 39, N-(1-cyclopropyl-3-hydroxypropyl)-4-(isopropylamino)-2-(thiazol-5-yl)thieno[2,3-b]pyridine-5-carboxamide]	6.26
CC(C)Nc1c(C(=O)N[C@H](C)CCO)cnc2sc(-c3cncs3)cc12 [Example 40, (R)-N-(4-hydroxybutan-2-yl)-4-(isopropylamino)-2-(thiazol-5-yl)thieno[2,3-b]pyridine-5-carboxamide]	6.90
CC(C)Nc1c(C(=O)NCc2cocn2)cnc2sc(-c3cncs3)cc12 [Example 41, 4-(isopropylamino)-N-(oxazol-4-ylmethyl)-2-(thiazol-5-yl) thieno[2,3-b]pyridine-5-carboxamide]	7.67
CC(=O)N[C@H]1CC[C@H](NC(=O)c2cnc3sc(-c4cncs4)cc3c2NC(C)C)CC1 [Example 45, N-((1r,4r)-4-acetamidocyclohexyl)-4-(isopropylamino)-2-(thiazol-5-yl)thieno[2,3-b]pyridine-5-carboxamide]	8.43
CC(C)Nc1c(C(=O)NCC(C)(C)CO)cnc2sc(-c3cncs3)cc12 [Example 46, N-(3-hydroxy-2,2-dimethylpropyl)-4-(isopropylamino)-2-(thiazol-5-yl)thieno[2,3-b]pyridine-5-carboxamide]	6.57
